The values that follow come from patent US20090170813A1, “Hypophosphorous Acid Derivatives and their Therapeutical Applications” (priority 2005, published 2009).

The EC50 is the concentration needed to bring the measured effect to its halfway point.

This experiment concerns the target T1, rat mGlu4 (Rattus norvegicus, UniProt P31423).
T1 construct: expressed in transfected cells; host or cells: HEK293
In words: Agonist activity, [3H]phosphatidylinositol accumulation in HEK293 cells transfected with rat mGlu4 and Gqi9. Conditions: for EC50: Table 2, n in brackets, read-out: mGlu4 EC50 μM (n); for mGlu4 agonist character (partial): Table 2, remark beside EC50. In kind it is cell-based. On the procedure:
Agonist activity of the compounds was tested on HEK293 cells transiently transfected with rat mGlu4 expressing plasmid pRKG4 and chimeric G-protein Gqi9 by electroporation, as described by Gomeza, J. et al, Mol. Pharmacol; 1996, 50, 923-930.
Cells were plated in 96-well culture plates and labeled overnight with [^3H]myoinositol. The day after, cells were washed three times with Krebs buffer, incubated for 10 min with LiCl 5 mM, and then incubated for 30 min in the absence (basal) or in the presence of the indicated compounds at 1 nM up to 1000 μM. The total amount of [^3H]phosphatidylinositol accumulated in the cells was determined after Dowex purification as previously by Goudet C, et al, Prod. Natl. Acad. Sci. USA 2004, 101, 378-383.
The response dosis curves were adjusted by using equatrier y=[(Ymax−ymin)/(1+(x/EC50)^n)]+ymin where EC50 is the concentration necessary for obtaining half of the maximal effect and n is Hill coefficient.

T1 sequence (P31423 33-912): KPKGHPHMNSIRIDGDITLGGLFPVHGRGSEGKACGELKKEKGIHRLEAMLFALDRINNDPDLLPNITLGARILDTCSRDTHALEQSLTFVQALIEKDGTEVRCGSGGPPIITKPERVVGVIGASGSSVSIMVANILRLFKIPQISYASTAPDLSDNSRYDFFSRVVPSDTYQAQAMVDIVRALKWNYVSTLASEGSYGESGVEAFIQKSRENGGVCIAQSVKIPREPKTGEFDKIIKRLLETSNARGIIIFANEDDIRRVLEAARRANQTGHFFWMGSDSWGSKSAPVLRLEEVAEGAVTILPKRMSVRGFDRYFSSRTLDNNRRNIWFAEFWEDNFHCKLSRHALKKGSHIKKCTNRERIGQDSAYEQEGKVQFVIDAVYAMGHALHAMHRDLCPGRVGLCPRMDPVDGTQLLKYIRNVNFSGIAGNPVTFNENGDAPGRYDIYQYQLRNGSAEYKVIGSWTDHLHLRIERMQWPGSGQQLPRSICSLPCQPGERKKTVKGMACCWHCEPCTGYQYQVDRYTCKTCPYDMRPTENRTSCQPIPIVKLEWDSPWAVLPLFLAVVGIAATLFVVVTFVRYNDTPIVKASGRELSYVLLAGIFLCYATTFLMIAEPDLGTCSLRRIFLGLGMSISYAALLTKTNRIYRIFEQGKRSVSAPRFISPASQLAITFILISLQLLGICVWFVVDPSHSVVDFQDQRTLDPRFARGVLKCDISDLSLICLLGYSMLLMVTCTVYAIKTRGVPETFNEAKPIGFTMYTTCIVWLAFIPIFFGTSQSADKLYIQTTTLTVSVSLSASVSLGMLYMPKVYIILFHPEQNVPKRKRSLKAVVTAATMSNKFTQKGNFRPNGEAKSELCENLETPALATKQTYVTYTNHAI

Take `C/C(=C\C(=O)O)C(O)P(=O)(O)CC[C@H](N)C(=O)O` (stereo partly drawn) [Compound 31, (3S)-4-[((3-amino-3-carboxy)propyl)(hydroxy)phosphinyl]-4-hydroxy-3-methyl-2-butenoic Acid]: the “mGlu4 activity at 100 μM” value was “inactive at 100 μM (1)”.

For `N[C@@H](CCP(=O)(O)C(O)c1cccc(C(=O)O)c1)C(=O)O` (stereo partly drawn) [Compound 24, (3S)-3-[(((3-amino-3-carboxy)propyl)(hydroxy)phosphinyl)-hydroxymethyl]benzoic Acid], the EC50 was found to be 20.8 µM.

Take `N[C@@H](CCP(=O)(O)C(O)c1ccc([N+](=O)[O-])s1)C(=O)O` (stereo partly drawn) [Compound 86, (3S)-2-[(((3-amino-3-carboxy)propyl)(hydroxy)phosphinyl)-hydroxymethyl] 5-nitrothiophene]: the concentration giving a half-maximal response (EC50) came out at 0.31 µM.

Take `N[C@@H](CCP(=O)(O)C(O)c1c(F)c(F)c(F)c(F)c1F)C(=O)O` (stereo partly drawn) [Compound 80, (3S)-1-[(((3-amino-3-carboxy)propyl)(hydroxy)phosphinyl)-hydroxymethyl] 2,3,4,5,6-pentafluorobenzene]: the EC50 is 5.19 µM.

Take `COc1ccc(C(O)P(=O)(O)CC[C@H](N)C(=O)O)cc1[N+](=O)[O-]` (stereo partly drawn) [Compound 58, (3S)-3-[(((3-amino-3-carboxy)propyl)(hydroxy)phosphinyl)-hydroxymethyl] 3-nitro-4-methoxybenzene]: the EC50 was found to be 2.89 µM.

Regarding `N[C@@H](CCP(=O)(O)C(O)c1ccc(C(F)(F)F)c([N+](=O)[O-])c1)C(=O)O` (stereo partly drawn) [Compound 38], the EC50 was 0.28 µM.

On to `N[C@@H](CCP(=O)(O)CCC(=O)O)C(=O)O` [Compound 7, (3S)-3-[((3-Amino-3-carboxy)propyl)(hydroxy)phosphinyl]propanoic Acid], for which the 50% effective concentration (EC50) was 6.4 µM.

As to `N[C@@H](CCP(=O)(O)C(O)c1ccc([N+](=O)[O-])c(C(F)(F)F)c1)C(=O)O` (stereo partly drawn) [Compound 94, (3S)-4-[(((3-amino-3-carboxy)propyl)(hydroxy)phosphinyl)-hydroxymethyl] 2-trifluoro methyl-1-nitrobenzene], the 50% effective concentration (EC50) was 0.305 µM.

On to `N[C@@H](CCP(=O)(O)Cc1cccc(C(=O)O)c1)C(=O)O` [Compound 46, (3S)-3-[(((3-amino-3-carboxy)propyl)(hydroxy)phosphinyl)-methyl]benzoic Acid], for which the “mGlu4 % max at 100 μM” value is on record as 33% max at 100 μM (1).

For the molecule `N[C@@H](CCP(=O)(O)C(O)c1cccc([N+](=O)[O-])c1)C(=O)O` (stereo partly drawn) [Compound 56, (3S)-3-[(((3-amino-3-carboxy)propyl)(hydroxy)phosphinyl)-hydroxymethyl] 3-nitrobenzene], the EC50 is 0.63 µM.

Regarding `N[C@@H](CCP(=O)(O)C(O)c1ccc([N+](=O)[O-])o1)C(=O)O` (stereo partly drawn) [Compound 84, (3S)-2-[(((3-amino-3-carboxy)propyl)(hydroxy)phosphinyl)-hydroxymethyl] 5-nitrofuran], the EC50 amounted to 0.087 µM.

Take `N[C@@H](CCP(=O)(O)C(O)c1ccc(Cl)c([N+](=O)[O-])c1)C(=O)O` (stereo partly drawn) [Compound 66, (3S)-3-[(((3-amino-3-carboxy)propyl)(hydroxy)phosphinyl)-hydroxymethyl]-6-chloro-1-nitrobenzene]: the EC50 stood at 2.74 µM.

For the molecule `N[C@@H](CCP(=O)(O)C1COC(=O)C1)C(=O)O` (stereo partly drawn) [Compound 36, (3S)-4-[((3-amino-3-carboxy)propyl)(hydroxy)phosphinyl]furanone], the “mGlu4 agonist character (partial)” value is listed as “partial” and the EC50 was 11.5 µM.

Regarding `N[C@@H](CCP(=O)(O)C(O)c1cccc([N+](=O)[O-])c1O)C(=O)O` (stereo partly drawn) [Compound 78, (3S)-3-[(((3-amino-3-carboxy)propyl)(hydroxy)phosphinyl)-hydroxymethyl] 2-hydroxy-nitrobenzene], the EC50 stood at 15.2 µM.

Take `N[C@@H](CCP(=O)(O)C(CC(=O)O)C(F)(F)F)C(=O)O` (stereo partly drawn) [Compound 28, (3S)-3-[((3-amino-3-carboxy)propyl)(hydroxy)phosphinyl]-3-trifluoromethylpropanoic Acid]: the “mGlu4 % max at 100 μM” value is listed as 60% max at 100 μM (1).

With `N[C@@H](CCP(=O)(O)C(O)c1ccc([N+](=O)[O-])cc1)C(=O)O` (stereo partly drawn) [Compound 72, (3S)-4-[(((3-amino-3-carboxy)propyl)(hydroxy)phosphinyl)-hydroxymethyl] nitrobenzene], the EC50 came to 0.93 µM.

For `COc1cc(C(O)P(=O)(O)CC[C@H](N)C(=O)O)cc([N+](=O)[O-])c1O` (stereo partly drawn) [Compound 64, (3S)-3-[(((3-amino-3-carboxy)propyl)(hydroxy)phosphinyl)-hydroxymethyl]-5-methoxy-6-hydroxy-1-nitrobenzene], the EC50 was determined as 1.5 µM.

In the case of `N[C@@H](CCP(=O)(O)CC(CC(=O)O)C(=O)O)C(=O)O` (stereo partly drawn) [Compound 19, (3S)-2-[(((3-amino-3-carboxy)propyl)(hydroxy)phosphinyl)-methyl]butane-1,4-dioic Acid], the EC50 was 28.7 µM.

`N[C@@H](CCP(=O)(O)C(O)c1ccc(N2CCOCC2)c([N+](=O)[O-])c1)C(=O)O` (stereo partly drawn) [Compound 68, (3S)-3-[(((3-amino-3-carboxy)propyl)(hydroxy)phosphinyl)-hydroxymethyl]-6-morpholino-1-nitro benzene]: the EC50 was over 100 µM.

`N[C@@H](CCP(=O)(O)C(O)C1CC1C(=O)O)C(=O)O` (single isomer, unassigned) [CS158]: the EC50 is 5.1 µM.

On to `N[C@@H](CCP(=O)(O)C(O)c1cc([N+](=O)[O-])cc([N+](=O)[O-])c1O)C(=O)O` (stereo partly drawn) [Compound 76, (3S)-3-[(((3-amino-3-carboxy)propyl)(hydroxy)phosphinyl)-hydroxymethyl] 2-hydroxy-1,5-dinitrobenzene], for which the concentration giving a half-maximal response (EC50) amounted to 2.3 µM.

For `N[C@@H](CCP(=O)(O)C(O)c1ccc(O)c([N+](=O)[O-])c1)C(=O)O` (stereo partly drawn) [Compound 62, (3S)-3-[(((3-amino-3-carboxy)propyl)(hydroxy)phosphinyl)-hydroxymethyl]-6-hydroxy-1-nitrobenzene], the EC50 is 2 µM.

As to `CS(=O)(=O)c1ccc(C(O)P(=O)(O)CC[C@H](N)C(=O)O)cc1` (stereo partly drawn) [Compound 74, (3S)-4-[(((3-amino-3-carboxy)propyl)(hydroxy)phosphinyl)-hydroxymethyl]methylsulphonylbenzene], the EC50 was over 100 µM.

In the case of `N[C@@H](CCP(=O)(O)CCCC(=O)O)C(=O)O` [Compound 48, (3S)-4-[((3-Amino-3-carboxy)propyl)(hydroxy)phosphinyl]butanoic Acid], the “mGlu4 % max at 100 μM” value is recorded as 80% max at 100 μM (1).

Regarding `NC(CCP(=O)(O)CCCCC(=O)O)C(=O)O` (stereo not drawn) [Compound 60, 5-[((3-Amino-3-carboxy)propyl)(hydroxy)phosphinyl]pentanoic Acid], the “mGlu4 activity at 100 μM” value is “inactive at 100 μM (1)”.

On to `N[C@@H](CCP(=O)(O)C(O)c1c([N+](=O)[O-])cccc1[N+](=O)[O-])C(=O)O` (stereo partly drawn) [Compound 90, (3S)-2-[(((3-amino-3-carboxy)propyl)(hydroxy)phosphinyl)-hydroxymethyl] 1,3-dinitro benzene], for which the EC50 worked out at 1.96 µM.

Turning to `N[C@@H](CCP(=O)(O)C(CC(=O)O)CC(=O)O)C(=O)O` [Compound 16, (3S)-3-[(((3-amino-3-carboxy)propyl)(hydroxy)phosphinyl)-methyl]pentane-1,5-dioic Acid], the “mGlu4 % max at 100 μM” value is 10% max at 100 μM (1).

In the case of `N[C@@H](CCP(=O)(O)C(O)C1CC1C(=O)O)C(=O)O` (single isomer, unassigned) [CS159], the “mGlu4 agonist character (partial)” value was “partial” and the EC50 came out at 12.9 µM.
